Here are results for 35 molecules from patent publication US10988477B2 (Merck Patent GmbH, priority 2018, dated 2021).

Some results are limits rather than exact numbers.

Sequence of GCN2 kinase (Q9P2K8 whole entry): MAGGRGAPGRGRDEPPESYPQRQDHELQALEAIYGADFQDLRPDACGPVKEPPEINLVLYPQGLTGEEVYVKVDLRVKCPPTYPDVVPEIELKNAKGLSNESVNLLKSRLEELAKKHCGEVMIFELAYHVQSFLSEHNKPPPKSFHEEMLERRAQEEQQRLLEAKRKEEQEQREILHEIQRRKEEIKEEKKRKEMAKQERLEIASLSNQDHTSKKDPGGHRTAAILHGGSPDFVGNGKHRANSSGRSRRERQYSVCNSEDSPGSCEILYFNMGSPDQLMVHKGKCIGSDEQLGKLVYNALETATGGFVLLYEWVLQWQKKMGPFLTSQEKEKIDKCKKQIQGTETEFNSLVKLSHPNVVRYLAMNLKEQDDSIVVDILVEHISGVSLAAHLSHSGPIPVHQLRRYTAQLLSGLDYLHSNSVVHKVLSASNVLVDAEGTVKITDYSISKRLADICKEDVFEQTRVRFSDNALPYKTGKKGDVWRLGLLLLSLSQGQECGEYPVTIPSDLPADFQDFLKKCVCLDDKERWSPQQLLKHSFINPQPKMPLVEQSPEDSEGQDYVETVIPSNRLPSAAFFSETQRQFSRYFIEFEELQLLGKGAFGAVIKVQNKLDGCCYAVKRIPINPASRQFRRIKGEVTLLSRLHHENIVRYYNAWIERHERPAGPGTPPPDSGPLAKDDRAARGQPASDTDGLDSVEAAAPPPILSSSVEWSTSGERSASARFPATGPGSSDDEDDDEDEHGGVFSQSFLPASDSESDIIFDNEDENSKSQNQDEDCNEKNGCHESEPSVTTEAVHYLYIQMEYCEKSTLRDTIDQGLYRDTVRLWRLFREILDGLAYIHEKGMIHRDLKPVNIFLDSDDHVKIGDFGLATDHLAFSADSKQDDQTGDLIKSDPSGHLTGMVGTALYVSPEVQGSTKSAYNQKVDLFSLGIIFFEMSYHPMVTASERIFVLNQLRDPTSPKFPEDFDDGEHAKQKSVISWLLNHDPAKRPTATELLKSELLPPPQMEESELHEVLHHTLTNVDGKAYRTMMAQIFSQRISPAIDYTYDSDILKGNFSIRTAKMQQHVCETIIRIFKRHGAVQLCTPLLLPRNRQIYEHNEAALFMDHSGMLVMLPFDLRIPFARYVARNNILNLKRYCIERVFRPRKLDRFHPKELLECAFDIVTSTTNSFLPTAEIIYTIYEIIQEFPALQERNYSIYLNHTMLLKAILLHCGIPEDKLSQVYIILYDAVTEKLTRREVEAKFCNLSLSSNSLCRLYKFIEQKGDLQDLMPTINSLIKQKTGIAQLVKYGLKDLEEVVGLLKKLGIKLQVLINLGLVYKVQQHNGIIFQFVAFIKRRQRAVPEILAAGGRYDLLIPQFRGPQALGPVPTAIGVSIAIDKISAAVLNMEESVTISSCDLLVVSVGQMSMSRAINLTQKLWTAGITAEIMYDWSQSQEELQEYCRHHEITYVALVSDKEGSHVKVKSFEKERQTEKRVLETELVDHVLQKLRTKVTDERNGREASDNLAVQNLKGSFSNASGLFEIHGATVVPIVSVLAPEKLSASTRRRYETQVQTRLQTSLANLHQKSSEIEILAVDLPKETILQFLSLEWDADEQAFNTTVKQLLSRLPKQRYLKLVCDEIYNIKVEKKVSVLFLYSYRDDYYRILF

This assay has as its target GCN2 kinase (Homo sapiens, UniProt Q9P2K8). In words: GCN2 enzyme inhibition assay (Transcreener ADP2 fluorescence polarization). It counts as biochemical. As to conditions: Enzyme activity for compounds of Formula IV; Ki(app), 280 μM ATP, 25° C. In outline:
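Human GCN2 (4 nM) preincubated 10 min with compound (0–8 μM) and 200 μM (RS)7 peptide in Tris-HCl pH 7.5, NaCl, MgCl2, DTT. Reaction started with 280 μM ATP, run 1 h at 25 °C. ADP detected by Transcreener fluorescence polarization. IC50 and Ki(app) fitted by tight-binding algorithm.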
With `CCOc1cccc(-c2cn3c(-c4nccc(N5CCN(C(C)=O)CC5)n4)cnc3cn2)c1` [IV-299, 1-(4-(2-(6-(3-Ethoxyphenyl)imidazo[1,2-a]pyrazin-3-yl)pyrimidin-4-yl)piperazin-1-yl)ethan-1-one], the Ki lay in the range of 10 to 100 nM.
Next, `CC(=O)N1CCN(c2ccnc(-c3cnc4cnc(-c5c[nH]nc5C)cn34)n2)CC1` [IV-300, 1-(4-(2-(6-(3-Methyl-1H-pyrazol-4-yl)imidazo[1,2-a]pyrazin-3-yl)pyrimidin-4-yl)piperazin-1-yl)ethan-1-one]: 100 to 1000 nM.
Next, `CC(=O)N1CCN(c2ccnc(-c3cnc4cnc(-c5ccccc5C#N)cn34)n2)CC1` [IV-301, 2-(3-(4-(4-Acetylpiperazin-1-yl)pyrimidin-2-yl)imidazo[1,2-a]pyrazin-6-yl)benzonitrile]: 100 to 1000 nM.
Next, `CC(=O)N1CCN(c2ccnc(-c3cnc4cnc(-c5ccc(CO)cc5)cn34)n2)CC1` [IV-302, 1-(4-(2-(6-(4-(Hydroxymethyl)phenyl)imidazo[1,2-a]pyrazin-3-yl)pyrimidin-4-yl)piperazin-1-yl)ethan-1-one]: 100 to 1000 nM; `CC(=O)N1CCN(c2ccnc(-c3cnc4cnc(-c5ccc(C(N)=O)cc5)cn34)n2)CC1` [IV-303, 4-(3-(4-(4-Acetylpiperazin-1-yl)pyrimidin-2-yl)imidazo[1,2-a]pyrazin-6-yl)benzamide]: 100 to 1000 nM.
As for `CC1CC(c2cn[nH]c2)C(C)N(c2ccnc(-c3cnc4cnc(C(F)(F)F)cn34)n2)C1` (centres unmarked) [IV-304, 3-(4-(2,5-Dimethyl-3-(1H-pyrazol-4-yl)piperidin-1-yl)pyrimidin-2-yl)-6-(trifluoromethyl)imidazo[1,2-a]pyrazine], the Ki was under 10 nM.
On to `CC(=O)N1CCN(c2ccnc(-c3cnc4cnc(-c5cn(C)nc5C)cn34)n2)CC1` [IV-307, 1-(4-(2-(6-(1,3-Dimethyl-1H-pyrazol-4-yl)imidazo[1,2-a]pyrazin-3-yl)pyrimidin-4-yl)piperazin-1-yl)ethan-1-one], for which the Ki fell in the range of 100 to 1000 nM.
Next, `CC(=O)N1CCN(c2ccnc(-c3cnc4cnc(-c5cccc(CO)c5)cn34)n2)CC1` [IV-308, 1-(4-(2-(6-(3-(Hydroxymethyl)phenyl)imidazo[1,2-a]pyrazin-3-yl)pyrimidin-4-yl)piperazin-1-yl)ethan-1-one]: 100 to 1000 nM.
Next, `CC(=O)N1CCN(c2ccnc(-c3cnc4cnc(-c5cccc(O)c5)cn34)n2)CC1` [IV-309, 1-(4-(2-(6-(3-Hydroxyphenyl)imidazo[1,2-a]pyrazin-3-yl)pyrimidin-4-yl)piperazin-1-yl)ethan-1-one]: 10 to 100 nM; `FC(F)(F)c1cn2c(-c3nccc(N4CCCC(c5ccno5)C4)n3)cnc2cn1` (centres unmarked) [IV-317, 5-(1-(2-(6-(Trifluoromethyl)imidazo[1,2-a]pyrazin-3-yl)pyrimidin-4-yl)piperidin-3-yl)isoxazole]: 10 to 100 nM.
Next, `CC1CCN(c2ccnc(-c3cnc4cnc(C(F)(F)F)cn34)n2)CC1n1ccnc1` (centres unmarked) [IV-319, 3-(4-(3-(1H-Imidazol-1-yl)-4-methylpiperidin-1-yl)pyrimidin-2-yl)-6-(trifluoromethyl)imidazo[1,2-a]pyrazine]: 100 to 1000 nM.
`CC1CCN(c2ccnc(-c3cnc4cnc(C(F)(F)F)cn34)n2)CC1n1ccnc1` (centres unmarked) [IV-320, 3-(4-(3-(1H-Imidazol-1-yl)-4-methylpiperidin-1-yl)pyrimidin-2-yl)-6-(trifluoromethyl)imidazo[1,2-a]pyrazine]: the Ki lay within 100 to 1000 nM.
Next, `FC(F)(F)c1cn2c(-c3nccc(N4CCCC(c5ncon5)C4)n3)cnc2cn1` (centres unmarked) [IV-321, 3-(1-(2-(6-(Trifluoromethyl)imidazo[1,2-a]pyrazin-3-yl)pyrimidin-4-yl)piperidin-3-yl)-1,2,4-oxadiazole]: 100 to 1000 nM.
Next, `FC(F)(F)c1cn2c(-c3nccc(N4CCCC(c5ncno5)C4)n3)cnc2cn1` (centres unmarked) [IV-322, 5-(1-(2-(6-(Trifluoromethyl)imidazo[1,2-a]pyrazin-3-yl)pyrimidin-4-yl)piperidin-3-yl)-1,2,4-oxadiazole]: 100 to 1000 nM; `FC(F)(F)c1cn2c(-c3nccc(N4CCCC(c5c[nH]cn5)C4)n3)cnc2cn1` (centres unmarked) [IV-325, 3-(4-(3-(1H-Imidazol-4-yl)piperidin-1-yl)pyrimidin-2-yl)-6-(trifluoromethyl)imidazo[1,2-a]pyrazine]: 10 to 100 nM; `FC(F)(F)c1cn2c(-c3nccc(N4CCCC(c5nnc[nH]5)C4)n3)cnc2cn1` (centres unmarked) [IV-326, 3-(4-(3-(4H-1,2,4-Triazol-3-yl)piperidin-1-yl)pyrimidin-2-yl)-6-(trifluoromethyl)imidazo[1,2-a]pyrazine]: 100 to 1000 nM.
The figure for `CC1(C)CN(c2ccnc(-c3cnc4cnc(C(F)(F)F)cn34)n2)CC(c2cn[nH]c2)N1` (centres unmarked) [IV-327, 3-(4-(3,3-Dimethyl-5-(1H-pyrazol-4-yl)piperazin-1-yl)pyrimidin-2-yl)-6-(trifluoromethyl)imidazo[1,2-a]pyrazine] is 10 to 100 nM; for `CC(C)C1CN(c2ccnc(-c3cnc4cnc(C(F)(F)F)cn34)n2)C(C)C(c2cn[nH]c2)N1` (centres unmarked) [IV-330, 3-(4-(5-Isopropyl-2-methyl-3-(1H-pyrazol-4-yl)piperazin-1-yl)pyrimidin-2-yl)-6-(trifluoromethyl)imidazo[1,2-a]pyrazine] it is 10 to 100 nM.
Regarding `FC(F)(F)c1cn2c(-c3nccc(N4CCCC(c5nn[nH]n5)C4)n3)cnc2cn1` (centres unmarked) [IV-331, 3-(4-(3-(2H-Tetrazol-5-yl)piperidin-1-yl)pyrimidin-2-yl)-6-(trifluoromethyl)imidazo[1,2-a]pyrazine], the Ki lay within 100 to 1000 nM.
Next, `O=CNC1CCCN(c2ccnc(-c3cnc4cnc(C(F)(F)F)cn34)n2)C1` (centres unmarked) [IV-332, N-(1-(2-(6-(trifluoromethyl)imidazo[1,2-a]pyrazin-3-yl)pyrimidin-4-yl)piperidin-3-yl)formamide]: 100 to 1000 nM; `Brc1cn2c(-c3nccc(N4CCNC(c5c[nH]cn5)C4)n3)cnc2cn1` (centres unmarked) [IV-348, 3-(4-(3-(1H-Imidazol-4-yl)piperazin-1-yl)pyrimidin-2-yl)-6-bromoimidazo[1,2-a]pyrazine]: 10 to 100 nM; `Cc1nc(C2=CCCN(c3ccnc(-c4cnc5cnc(Br)cn45)n3)C2)c[nH]1` [IV-356, 6-Bromo-3-(4-(5-(2-methyl-1H-imidazol-4-yl)-3,6-dihydropyridin-1(2H)-yl)pyrimidin-2-yl)imidazo[1,2-a]pyrazine]: under 10 nM.
Next, `CC1CN(c2nccc(-c3cnc4cnc(Cl)cn34)n2)C(C)C(c2cn[nH]c2)N1` (centres unmarked) [IV-382, 6-Chloro-3-(2-(2,5-dimethyl-3-(1H-pyrazol-4-yl)piperazin-1-yl)pyrimidin-4-yl)imidazo[1,2-a]pyrazine]: 10 to 100 nM.
Molecule `CC1CN(c2nccc(-c3cnc4cnc(Br)cn34)n2)C(C)C(c2cn[nH]c2)N1` (centres unmarked) [IV-383, 6-Bromo-3-(2-(2,5-dimethyl-3-(1H-pyrazol-4-yl)piperazin-1-yl)pyrimidin-4-yl)imidazo[1,2-a]pyrazine] gave a Ki of 10 to 100 nM.
As to `CC1C(c2cn[nH]c2)OCCN1c1nccc(-c2cnc3cnc(C(F)(F)F)cn23)n1` (centres unmarked) [IV-417, 3-Methyl-2-(1H-pyrazol-4-yl)-4-(4-(6-(trifluoromethyl)imidazo[1,2-a]pyrazin-3-yl)pyrimidin-2-yl)morpholine], the Ki was under 10 nM.
Next, `FC(F)(F)c1cn2c(-c3nccc(N4CCCC4)n3)cnc2cn1` [IV-428, 3-(4-(Pyrrolidin-1-yl)pyrimidin-2-yl)-6-(trifluoromethyl)imidazo[1,2-a]pyrazine]: 100 to 1000 nM; `FC(F)(F)c1cn2c(-c3nccc(N4CCCCCC4)n3)cnc2cn1` [IV-429, 3-(4-(Azepan-1-yl)pyrimidin-2-yl)-6-(trifluoromethyl)imidazo[1,2-a]pyrazine]: 100 to 1000 nM; `Fc1n[nH]cc1C1=CCCN(c2ccnc(-c3cnc4cnc(C(F)(F)F)cn34)n2)C1` [IV-430, 3-(4-(5-(3-Fluoro-1H-pyrazol-4-yl)-3,6-dihydropyridin-1(2H)-yl)pyrimidin-2-yl)-6-(trifluoromethyl)imidazo[1,2-a]pyrazine]: under 10 nM.
The figure for `OCCn1cc(-c2ccnc(-c3cnc4cnc(C(F)(F)F)cn34)n2)cn1` [IV-431, 2-(4-(2-(6-(Trifluoromethyl)imidazo[1,2-a]pyrazin-3-yl)pyrimidin-4-yl)-1H-pyrazol-1-yl)ethan-1-ol] is 100 to 1000 nM; for `NC(=O)CC1CCN(c2ccnc(-c3cnc4cnc(C(F)(F)F)cn34)n2)C1` (centres unmarked) [IV-432, 2-(1-(2-(6-(Trifluoromethyl)imidazo[1,2-a]pyrazin-3-yl)pyrimidin-4-yl)pyrrolidin-3-yl)acetamide] it is 100 to 1000 nM.
The figure for `OC1CCN(c2ccnc(-c3cnc4cnc(C(F)(F)F)cn34)n2)C1` (centres unmarked) [IV-433, 1-(2-(6-(Trifluoromethyl)imidazo[1,2-a]pyrazin-3-yl)pyrimidin-4-yl)pyrrolidin-3-ol] is 100 to 1000 nM.
`OCC1CCN(c2ccnc(-c3cnc4cnc(C(F)(F)F)cn34)n2)C1` (centres unmarked) [IV-434, (1-(2-(6-(Trifluoromethyl)imidazo[1,2-a]pyrazin-3-yl)pyrimidin-4-yl)pyrrolidin-3-yl)methanol] registered a Ki of 100 to 1000 nM.
Regarding `OCCC1CCCCN1c1ccnc(-c2cnc3cnc(C(F)(F)F)cn23)n1` (centres unmarked) [IV-438, 2-(1-(2-(6-(Trifluoromethyl)imidazo[1,2-a]pyrazin-3-yl)pyrimidin-4-yl)piperidin-2-yl)ethan-1-ol], the Ki lay in the range of 100 to 1000 nM.
Next, `OCC1CCCCN1c1ccnc(-c2cnc3cnc(C(F)(F)F)cn23)n1` (centres unmarked) [IV-440, (1-(2-(6-(Trifluoromethyl)imidazo[1,2-a]pyrazin-3-yl)pyrimidin-4-yl)piperidin-2-yl)methanol]: 100 to 1000 nM; `OC1CCN(c2ccnc(-c3cnc4cnc(C(F)(F)F)cn34)n2)CC1` [IV-441, 1-(2-(6-(Trifluoromethyl)imidazo[1,2-a]pyrazin-3-yl)pyrimidin-4-yl)piperidin-4-ol]: 100 to 1000 nM.
